Reference: article PMC6895180 (Nature Communications, 2019)
Where “and” joins values, the source holds several entries; their conditions need not be identical. Identical values can stand only once. Like-named read-outs stand apart in the source and are kept apart here.

What was measured:
[1] = Cytotoxicity on MRC-5 fibroblasts (resazurin); assay type: cell-based, human; conditions: human, MRC-5SV2 human embryonic lung fibroblasts
Procedure, shortened: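 MRC-5SV2 cells (3 × 10^4 cells mL^−1) in MEM with 5% foetal calf serum exposed to compounds for 3 days at 37 °C, 5% CO2. Viability read by resazurin fluorescence (10 µg mL^−1 final, 4 h; λex 550/λem 590 nm) against untreated and medium controls; EC50 derived.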

[2] = biological target: Lister 427WT T. b. brucei; experiment: Adenosine deaminase susceptibility (drug sensitivity with/without 2 µM deoxycoformycin); assay type: cell-based, Trypanosoma brucei brucei; conditions: for EC50: Trypanosoma brucei, Lister 427WT, mean ± SEM, n=3
[3] = system: T. brucei BSF s427 wildtype cells; experiment: Growth assays of T. brucei (trypanocidal/trypanostatic effect); assay type: cell-based, Trypanosoma brucei
Experimental: Growth assays of T. brucei
To test the effect of the novel adenosine analogues on the growth of T. brucei BSF, s427 wildtype cells were seeded at 1×10^5 cells mL-1 in 5 mL of HMI-9 medium with 10% FBS and treated with compounds […]
cells were also incubated in drug-free medium under the same conditions. 2 μM of 2’-deoxycoformycin were added to all cultures to avoid any potential effect of serum adenosine deaminase on the activity of test compounds and cordycepin.1
Cells were manually counted in Neubauer chambers at 0, 2, 4, 6, 8, 12, 24, 36 and 48 h after addition of […]
the drugs. […]
After 6 and 12 h after addition of drugs, approximately 2×10^6 cells were harvested from each group and applied to glass slides pre-treated with poly-L-lysine, left to settle for 5 min and fixed with 4% formaldehyde for 4 min. The formaldehyde was neutralised by addition of 100 mM glycine (20 min).
Cells were washed once with PBS and blocked for 1 h with 1% BSA/0.2% Tween-20 in PBS. Cells were […]

For Nc1ncnc2c1ccn2[C@@H]1O[C@H](CO)C[C@H]1O [Compound 9, 3’-deoxytubercidin], the EC50 at 3 day ([1]; cytotoxicity in human MRC-5 fibroblasts, mean and SEM, read-out: MRC-5 EC50) was greater than 64000 nM, the EC50 at 3 day ([1]; source data, read-out: MRC-5 EC50, single measurements) was greater than 64000 nM and the “effect of adenosine deaminase inhibition (2’-deoxycoformycin) on EC50” value [2] was “not significantly affected”. The EC50 ([2]; absence of deoxycoformycin, read-out: T. b. brucei EC50, -Dcf) was 37 ± 3 nM, the EC50 ([2]; presence of 2 µM deoxycoformycin, read-out: T. b. brucei EC50, +Dcf) was 49 ± 9 nM and the “AVG of cells/mL” value ([3]; 2xEC50, 2 h, experiment 1) was 105000 cells/mL. For the same compound, the Cells/mL ([3]; 2xEC50, 2 h, experiment 1) was 117500 Cells/mL and 92500 Cells/mL, the Counts ([3]; 2xEC50, 2 h, experiment 1) was 47 and 37 and the “AVG of cells/mL” value ([3]; 2xEC50, 2 h, experiment 2) was 147500 cells/mL. For the same compound, the Cells/mL ([3]; 2xEC50, 2 h, experiment 2) was 140000 Cells/mL and 155000 Cells/mL, the Counts ([3]; 2xEC50, 2 h, experiment 2) was 56 and 62 and the “AVG of cells/mL” value ([3]; 2xEC50, 4 h, experiment 1) was 158750 cells/mL. The Cells/mL ([3]; 2xEC50, 4 h, experiment 1) was 160000 Cells/mL and 157500 Cells/mL, the Counts ([3]; 2xEC50, 4 h, experiment 1) was 63 and 64 and the “AVG of cells/mL” value ([3]; 2xEC50, 4 h, experiment 2) was 186250 cells/mL. For the same compound, the Cells/mL ([3]; 2xEC50, 4 h, experiment 2) was 177500 Cells/mL and 195000 Cells/mL, the Counts ([3]; 2xEC50, 4 h, experiment 2) was 78 and 71 and the “AVG of cells/mL” value ([3]; 2xEC50, 6 h, experiment 1) was 160000 cells/mL. For the same compound, the Cells/mL ([3]; 2xEC50, 6 h, experiment 1) was 170000 Cells/mL and 150000 Cells/mL, the Counts ([3]; 2xEC50, 6 h, experiment 1) was 68 and 60 and the “AVG of cells/mL” value ([3]; 2xEC50, 6 h, experiment 2) was 210000 cells/mL. The Cells/mL ([3]; 2xEC50, 6 h, experiment 2) was 192500 Cells/mL and 227500 Cells/mL, the Counts ([3]; 2xEC50, 6 h, experiment 2) was 77 and 91 and the “AVG of cells/mL” value ([3]; 2xEC50, 8 h, experiment 1) was 167500 cells/mL. For the same compound, the Cells/mL ([3]; 2xEC50, 8 h, experiment 1) was 162500 Cells/mL and 172500 Cells/mL, the Counts ([3]; 2xEC50, 8 h, experiment 1) was 65 and 69 and the “AVG of cells/mL” value ([3]; 2xEC50, 8 h, experiment 2) was 156250 cells/mL. The Cells/mL ([3]; 2xEC50, 8 h, experiment 2) was 162500 Cells/mL and 150000 Cells/mL, the Counts ([3]; 2xEC50, 8 h, experiment 2) was 65 and 60 and the “AVG of cells/mL” value ([3]; 2xEC50, 12 h, experiment 1) was 152500 cells/mL. The Cells/mL ([3]; 2xEC50, 12 h, experiment 1) was 165000 Cells/mL and 140000 Cells/mL, the Counts ([3]; 2xEC50, 12 h, experiment 1) was 66 and 56 and the “AVG of cells/mL” value ([3]; 2xEC50, 12 h, experiment 2) was 145000 cells/mL. For the same compound, the Cells/mL ([3]; 2xEC50, 12 h, experiment 2) was 145000 Cells/mL, the Counts ([3]; 2xEC50, 12 h, experiment 2) was 58 and the “AVG of cells/mL” value ([3]; 2xEC50, 24 h, experiment 1) was 86250 cells/mL. The Cells/mL ([3]; 2xEC50, 24 h, experiment 1) was 77500 Cells/mL and 95000 Cells/mL, the Counts ([3]; 2xEC50, 24 h, experiment 1) was 31 and 38 and the “AVG of cells/mL” value ([3]; 2xEC50, 24 h, experiment 2) was 47500 cells/mL. The Cells/mL ([3]; 2xEC50, 24 h, experiment 2) was 37500 Cells/mL and 57500 Cells/mL, the Counts ([3]; 2xEC50, 24 h, experiment 2) was 15 and 23 and the “AVG of cells/mL” value ([3]; 2xEC50, 36 h, experiment 1) was 76250 cells/mL. The Cells/mL ([3]; 2xEC50, 36 h, experiment 1) was 87500 Cells/mL and 65000 Cells/mL, the Counts ([3]; 2xEC50, 36 h, experiment 1) was 35 and 26 and the “AVG of cells/mL” value ([3]; 2xEC50, 36 h, experiment 2) was 6250 cells/mL. The Cells/mL ([3]; 2xEC50, 36 h, experiment 2) was 7500 Cells/mL and 5000 Cells/mL, the Counts ([3]; 2xEC50, 36 h, experiment 2) was 3 and 2 and the Cells/mL ([3]; 2xEC50, 48 h, experiment 1) was 0 Cells/mL. For the same compound, the Counts ([3]; 2xEC50, 48 h, experiment 1) was 0, the “AVG of cells/mL” value ([3]; 2xEC50, 48 h, experiment 2) was 2500 cells/mL and the “effect on T. brucei bloodstream forms in culture (cidal/static)” value ([3]; 2× and 5× EC50) was “trypanocidal”. For the same compound, the “AVG of cells/mL” value ([3]; 5xEC50, 2 h, experiment 1) was 131250 cells/mL, the Cells/mL ([3]; 5xEC50, 2 h, experiment 1) was 135000 Cells/mL and 127500 Cells/mL and the Counts ([3]; 5xEC50, 2 h, experiment 1) was 54 and 51. The “AVG of cells/mL” value ([3]; 5xEC50, 2 h, experiment 2) was 135000 cells/mL, the Cells/mL ([3]; 5xEC50, 2 h, experiment 2) was 127500 Cells/mL and 142500 Cells/mL and the Counts ([3]; 5xEC50, 2 h, experiment 2) was 51 and 57. The “AVG of cells/mL” value ([3]; 5xEC50, 4 h, experiment 1) was 138750 cells/mL, the Cells/mL ([3]; 5xEC50, 4 h, experiment 1) was 117500 Cells/mL and 160000 Cells/mL and the Counts ([3]; 5xEC50, 4 h, experiment 1) was 64 and 47. The “AVG of cells/mL” value ([3]; 5xEC50, 4 h, experiment 2) was 181250 cells/mL, the Cells/mL ([3]; 5xEC50, 4 h, experiment 2) was 177500 Cells/mL and 185000 Cells/mL and the Counts ([3]; 5xEC50, 4 h, experiment 2) was 74 and 71. The “AVG of cells/mL” value ([3]; 5xEC50, 6 h, experiment 1) was 140000 cells/mL, the Cells/mL ([3]; 5xEC50, 6 h, experiment 1) was 127500 Cells/mL and 152500 Cells/mL and the Counts ([3]; 5xEC50, 6 h, experiment 1) was 51 and 61. For the same compound, the “AVG of cells/mL” value ([3]; 5xEC50, 6 h, experiment 2) was 145000 cells/mL, the Cells/mL ([3]; 5xEC50, 6 h, experiment 2) was 135000 Cells/mL and 155000 Cells/mL and the Counts ([3]; 5xEC50, 6 h, experiment 2) was 54 and 62. For the same compound, the “AVG of cells/mL” value ([3]; 5xEC50, 8 h, experiment 1) was 136250 cells/mL, the Cells/mL ([3]; 5xEC50, 8 h, experiment 1) was 115000 Cells/mL and 157500 Cells/mL and the Counts ([3]; 5xEC50, 8 h, experiment 1) was 46 and 63. For the same compound, the “AVG of cells/mL” value ([3]; 5xEC50, 8 h, experiment 2) was 137500 cells/mL, the Cells/mL ([3]; 5xEC50, 8 h, experiment 2) was 135000 Cells/mL and 140000 Cells/mL and the Counts ([3]; 5xEC50, 8 h, experiment 2) was 54 and 56. The “AVG of cells/mL” value ([3]; 5xEC50, 12 h, experiment 1) was 127500 cells/mL, the Cells/mL ([3]; 5xEC50, 12 h, experiment 1) was 135000 Cells/mL and 120000 Cells/mL and the Counts ([3]; 5xEC50, 12 h, experiment 1) was 54 and 48. The “AVG of cells/mL” value ([3]; 5xEC50, 12 h, experiment 2) was 125000 cells/mL, the Cells/mL ([3]; 5xEC50, 12 h, experiment 2) was 125000 Cells/mL and the Counts ([3]; 5xEC50, 12 h, experiment 2) was 50. The “AVG of cells/mL” value ([3]; 5xEC50, 24 h, experiment 1) was 47500 cells/mL, the Cells/mL ([3]; 5xEC50, 24 h, experiment 1) was 45000 Cells/mL and 50000 Cells/mL and the Counts ([3]; 5xEC50, 24 h, experiment 1) was 18 and 20. For the same compound, the “AVG of cells/mL” value ([3]; 5xEC50, 24 h, experiment 2) was 25000 cells/mL, the Cells/mL ([3]; 5xEC50, 24 h, experiment 2) was 27500 Cells/mL and 22500 Cells/mL and the Counts ([3]; 5xEC50, 24 h, experiment 2) was 11 and 9. For the same compound, the “AVG of cells/mL” value ([3]; 5xEC50, 36 h, experiment 1) was 22500 cells/mL, the Cells/mL ([3]; 5xEC50, 36 h, experiment 1) was 25000 Cells/mL and 20000 Cells/mL and the Counts ([3]; 5xEC50, 36 h, experiment 1) was 10 and 8. For the same compound, the “AVG of cells/mL” value ([3]; 5xEC50, 36 h, experiment 2) was 3750 cells/mL, the Cells/mL ([3]; 5xEC50, 36 h, experiment 2) was 5000 Cells/mL and 2500 Cells/mL and the Counts ([3]; 5xEC50, 36 h, experiment 2) was 2 and 1. The Cells/mL ([3]; 5xEC50, 48 h, experiment 1) was 0 Cells/mL, the Counts ([3]; 5xEC50, 48 h, experiment 1) was 0 and the “AVG of cells/mL” value ([3]; 5xEC50, 48 h, experiment 2) was 0 cells/mL. It also gave a Cells/mL ([3]; 5xEC50, 48 h, experiment 2) of 0 Cells/mL and a Counts ([3]; 5xEC50, 48 h, experiment 2) of 0.
